The values below come from patent publication US9249145B2, “Heterocyclic derivatives of pyrazol-4-yl-pyrrolo[2,3-d]pyrimidines as janus kinase inhibitors” (Incyte Holdings Corporation, priority 2009, dated 2016).

Assay [1] has as its target T1, Jak2 (a.a. 828-1132) (Homo sapiens, UniProt O60674).
T1 construct: Jak2 (a.a. 828-1132); His tag (N); made in house; host or cells: insect cells (baculovirus)
In words: In vitro JAK kinase assay (HTRF, phosphorylation of biotinylated peptide), JAK2. It is filed as biochemical. The conditions noted are these: 1 mM ATP; Examples 92-162; read-out: JAK2 IC50 (nM) @ 1 mM ATP. The essentials: (§1)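 IC50 from HTRF detection (Eu-Py20 antibody, SA-APC, 40 min) after EDTA quench. Reactions ran 1 h at room temperature with 500 nM biotinylated peptide in Tris pH 7.8 buffer with NaCl, DTT, BSA; ATP 90 μM for JAK1, 30 μM for JAK2 (Km), or 1 mM. Enzymes: His-tagged catalytic domains from insect cells.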
In general terms: In TR-FRET formats the signal depends on donor and acceptor labels being close together.

For assay [2], the target named is T2, human JAK1 (a.a. 837-1142) (Homo sapiens, UniProt P23458).
T2 construct: The catalytic domains of human JAK1 (a.a. 837-1142); His tag (N); made in house; host or cells: insect cells (baculovirus)
In words: In vitro JAK kinase assay (HTRF, phosphorylation of biotinylated peptide), JAK1. The format is biochemical. Conditions: 1 mM ATP; Examples 92-162; read-out: JAK1 IC50 (nM) @ 1 mM ATP. In a few lines:
as §1

T1 sequence (O60674 828-1132): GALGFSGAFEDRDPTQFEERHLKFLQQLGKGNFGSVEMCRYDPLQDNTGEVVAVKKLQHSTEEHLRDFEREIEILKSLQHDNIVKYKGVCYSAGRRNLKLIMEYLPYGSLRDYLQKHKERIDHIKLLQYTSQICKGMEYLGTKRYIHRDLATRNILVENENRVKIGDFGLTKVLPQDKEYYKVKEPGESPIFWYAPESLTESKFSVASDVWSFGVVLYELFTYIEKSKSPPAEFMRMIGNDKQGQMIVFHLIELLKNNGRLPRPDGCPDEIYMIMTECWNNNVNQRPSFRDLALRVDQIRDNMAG
T2 sequence (P23458 849-1154): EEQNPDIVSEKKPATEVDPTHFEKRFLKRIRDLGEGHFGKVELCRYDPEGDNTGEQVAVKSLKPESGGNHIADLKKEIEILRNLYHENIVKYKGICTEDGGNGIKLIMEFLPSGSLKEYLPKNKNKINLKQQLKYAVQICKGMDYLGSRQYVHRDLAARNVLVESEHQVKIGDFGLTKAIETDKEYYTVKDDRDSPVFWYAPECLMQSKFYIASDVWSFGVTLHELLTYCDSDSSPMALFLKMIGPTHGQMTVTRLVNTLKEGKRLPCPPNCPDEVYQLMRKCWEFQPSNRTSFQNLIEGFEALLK

For orientation: IC50 means the concentration that inhibits the measured activity by half. `N#CCC(CN1CCCN(C(=O)c2ccc(F)cc2)CC1)n1cc(-c2ncnc3[nH]ccc23)cn1` (stereo not shown) [Example 98, 4-[4-(4-fluorobenzoyl)-1,4-diazepan-1-yl]-3-[4-(7H-pyrrolo[2,3-d]pyrimidin-4-yl)-1H-pyrazol-1-yl]butanenitrile]: the IC50 was greater than 100 nM in assay [1] and 20 to 50 nM in assay [2].

Consider `N#CCC(CN1CCCN(C(=O)c2ccc(F)cc2F)CC1)n1cc(-c2ncnc3[nH]ccc23)cn1` (stereo not shown) [Example 99, 4-[4-(2,4-difluorobenzoyl)-1,4-diazepan-1-yl]-3-[4-(7H-pyrrolo[2,3-d]pyrimidin-4-yl)-1H-pyrazol-1-yl]butanenitrile], for which the IC50 was in the range of 50 to 100 nM in assay [1] and 20 to 50 nM in assay [2].

Turning to `N#CCC(CN1CCCN(C(=O)c2ccc(Cl)cc2F)CC1)n1cc(-c2ncnc3[nH]ccc23)cn1` (stereo not shown) [Example 100, 4-[4-(4-chloro-2-fluorobenzoyl)-1,4-diazepan-1-yl]-3-[4-(7H-pyrrolo[2,3-d]pyrimidin-4-yl)-1H-pyrazol-1-yl]butanenitrile], the IC50 in assay [1] was 20 to 50 nM; in assay [2] it was less than 20 nM.

Regarding `N#CCC(CN1CCCN(C(=O)c2ccccc2F)CC1)n1cc(-c2ncnc3[nH]ccc23)cn1` (stereo not shown) [Example 101, 4-[4-(2-fluorobenzoyl)-1,4-diazepan-1-yl]-3-[4-(7H-pyrrolo[2,3-d]pyrimidin-4-yl)-1H-pyrazol-1-yl]butanenitrile], the IC50 is greater than 100 nM in assay [1] and 20 to 50 nM in assay [2].

As for `N#CCC(CN1CCCN(S(=O)(=O)c2ccccc2C#N)CC1)n1cc(-c2ncnc3[nH]ccc23)cn1` (stereo not shown) [Example 102, 2-[(4-{3-cyano-2-[4-(7H-pyrrolo[2,3-d]pyrimidin-4-yl)-1H-pyrazol-1-yl]propyl}-1,4-diazepan-1-yl)sulfonyl]benzonitrile], the IC50 is 50 to 100 nM in assay [1] and 20 to 50 nM in assay [2].

On to `N#CCC(CN1CCCN(C(=O)c2ccc(Cl)cc2Cl)CC1)n1cc(-c2ncnc3[nH]ccc23)cn1` (stereo not shown) [Example 103, 4-[4-(2,4-dichlorobenzoyl)-1,4-diazepan-1-yl]-3-[4-(7H-pyrrolo[2,3-d]pyrimidin-4-yl)-1H-pyrazol-1-yl]butanenitrile], for which the IC50 was greater than 100 nM in assay [1] and 20 to 50 nM in assay [2].

In the case of `N#CCC(CN1CCCN(C(=O)c2ccc(N)cc2F)CC1)n1cc(-c2ncnc3[nH]ccc23)cn1` (stereo not shown) [Example 104, 4-[4-(4-amino-2-fluorobenzoyl)-1,4-diazepan-1-yl]-3-[4-(7H-pyrrolo[2,3-d]pyrimidin-4-yl)-1H-pyrazol-1-yl]butanenitrile], the IC50 in assay [1] is greater than 100 nM; in assay [2] it was 20 to 50 nM.

With `Cc1cc(Cl)ccc1C(=O)N1CCCN(CC(CC#N)n2cc(-c3ncnc4[nH]ccc34)cn2)CC1` (stereo not shown) [Example 105, 4-[4-(4-chloro-2-methylbenzoyl)-1,4-diazepan-1-yl]-3-[4-(7H-pyrrolo[2,3-d]pyrimidin-4-yl)-1H-pyrazol-1-yl]butanenitrile], the IC50 in assay [1] was greater than 100 nM; in assay [2], 20 to 50 nM.

Take `COc1cc(Cl)ccc1C(=O)N1CCCN(CC(CC#N)n2cc(-c3ncnc4[nH]ccc34)cn2)CC1` (stereo not shown) [Example 106, 4-[4-(4-chloro-2-methoxybenzoyl)-1,4-diazepan-1-yl]-3-[4-(7H-pyrrolo[2,3-d]pyrimidin-4-yl)-1H-pyrazol-1-yl]butanenitrile]: the IC50 in assay [1] is 50 to 100 nM; in assay [2], less than 20 nM.

Take `N#CCC(CN1CCCN(C(=O)c2ccc(Cl)cc2)CC1)n1cc(-c2ncnc3[nH]ccc23)cn1` (stereo not shown) [Example 107, 4-[4-(4-chlorobenzoyl)-1,4-diazepan-1-yl]-3-[4-(7H-pyrrolo[2,3-d]pyrimidin-4-yl)-1H-pyrazol-1-yl]butanenitrile]: the IC50 was greater than 100 nM in assay [1] and 20 to 50 nM in assay [2].

For the compound `Cc1ccccc1S(=O)(=O)N1CCCN(CC(CC#N)n2cc(-c3ncnc4[nH]ccc34)cn2)CC1` (stereo not shown) [Example 108, 4-{4-[(2-methylphenyl)sulfonyl]-1,4-diazepan-1-yl}-3-[4-(7H-pyrrolo[2,3-d]pyrimidin-4-yl)-1H-pyrazol-1-yl]butanenitrile], the IC50 in assay [1] is 50 to 100 nM; in assay [2], less than 20 nM.

In the case of `N#CCC(CN1CCCN(S(=O)(=O)c2ccccc2C(F)(F)F)CC1)n1cc(-c2ncnc3[nH]ccc23)cn1` (stereo not shown) [Example 109, 3-[4-(7H-pyrrolo[2,3-d]pyrimidin-4-yl)-1H-pyrazol-1-yl]-4-(4-{[2-(trifluoromethyl)phenyl]sulfonyl}-1,4-diazepan-1-yl)butanenitrile], the figures for the IC50 in assay [1] and in assay [2] were greater than 100 nM and 20 to 50 nM, respectively.

Take `N#CCC(CN1CCCN(S(=O)(=O)c2ccccc2OC(F)(F)F)CC1)n1cc(-c2ncnc3[nH]ccc23)cn1` (stereo not shown) [Example 110, 3-[4-(7H-pyrrolo[2,3-d]pyrimidin-4-yl)-1H-pyrazol-1-yl]-4-(4-{[2-(trifluoromethoxy)phenyl]sulfonyl}-1,4-diazepan-1-yl)butanenitrile]: the figures for the IC50 in assay [1] and in assay [2] were greater than 100 nM and 20 to 50 nM, respectively.

As for `COc1ccc(OC)c(S(=O)(=O)N2CCCN(CC(CC#N)n3cc(-c4ncnc5[nH]ccc45)cn3)CC2)c1` (stereo not shown) [Example 111, 4-{4-[(2,5-dimethoxyphenyl)sulfonyl]-1,4-diazepan-1-yl}-3-[4-(7H-pyrrolo[2,3-d]pyrimidin-4-yl)-1H-pyrazol-1-yl]butanenitrile], the IC50 in assay [1] fell in the range of 50 to 100 nM; in assay [2] it was 20 to 50 nM.

Turning to `COc1ccc(Cl)cc1S(=O)(=O)N1CCCN(CC(CC#N)n2cc(-c3ncnc4[nH]ccc34)cn2)CC1` (stereo not shown) [Example 112], the figures for the IC50 in assay [1] and in assay [2] were 20 to 50 nM and less than 20 nM, respectively.

On to `N#CCC(CN1CCCN(S(=O)(=O)c2ccccc2Oc2ccccc2)CC1)n1cc(-c2ncnc3[nH]ccc23)cn1` (stereo not shown) [Example 113, 4-{4-[(2-phenoxyphenyl)sulfonyl]-1,4-diazepan-1-yl}-3-[4-(7H-pyrrolo[2,3-d]pyrimidin-4-yl)-1H-pyrazol-1-yl]butanenitrile], for which the IC50 in assay [1] is greater than 100 nM; in assay [2] it was 20 to 50 nM.

In the case of `COc1ccc(Br)cc1S(=O)(=O)N1CCCN(CC(CC#N)n2cc(-c3ncnc4[nH]ccc34)cn2)CC1` (stereo not shown) [Example 114, 4-{4-[(5-bromo-2-methoxyphenyl)sulfonyl]-1,4-diazepan-1-yl}-3-[4-(7H-pyrrolo[2,3-d]pyrimidin-4-yl)-1H-pyrazol-1-yl]butanenitrile], the IC50 is 50 to 100 nM in assay [1] and 20 to 50 nM in assay [2].

Regarding `CCC(CN1CCN(S(=O)(=O)c2ccn(C)n2)CC1)n1cc(-c2ncnc3[nH]ccc23)cn1` (stereo not shown) [Example 115, 4-{1-[1-({4-[(1-methyl-1H-pyrazol-3-yl)sulfonyl]piperazin-1-yl}methyl)propyl]-1H-pyrazol-4-yl}-7H-pyrrolo[2,3-d]pyrimidine], the IC50 is 20 to 50 nM in assay [1] and less than 20 nM in assay [2].

On to `CCC(CN1CCN(C(=O)c2ccc(F)cc2)CC1)n1cc(-c2ncnc3[nH]ccc23)cn1` (stereo not shown) [Example 116, (4-(2-(4-(7H-pyrrolo[2,3-d]pyrimidin-4-yl)-1H-pyrazol-1-yl)butyl)piperazin-1-yl)(4-fluorophenyl)methanone], for which the concentration for half-maximal inhibition (IC50) in assay [1] is greater than 100 nM; in assay [2], 20 to 50 nM.

Regarding `CCC(CN1CCN(C(=O)c2ccccc2O)CC1)n1cc(-c2ncnc3[nH]ccc23)cn1` (stereo not shown) [Example 117, 2-[(4-{2-[4-(7H-pyrrolo[2,3-d]pyrimidin-4-yl)-1H-pyrazol-1-yl]butyl}piperazin-1-yl)carbonyl]phenol], the results for the IC50 in assay [1] and in assay [2] were 50 to 100 nM and 20 to 50 nM, respectively.

With `CCC(CN1CCN(C(=O)c2ccc(F)cc2F)CC1)n1cc(-c2ncnc3[nH]ccc23)cn1` (stereo not shown) [Example 118, (4-(2-(4-(7H-pyrrolo[2,3-d]pyrimidin-4-yl)-1H-pyrazol-1-yl)butyl)piperazin-1-yl)(2,4-difluorophenyl)methanone], the 50% inhibitory concentration (IC50) in assay [1] is 20 to 50 nM; in assay [2] it was less than 20 nM.

As for `CCC(CN1CCN(C(=O)c2cc(F)ccc2F)CC1)n1cc(-c2ncnc3[nH]ccc23)cn1` (stereo not shown) [Example 119, (4-(2-(4-(7H-pyrrolo[2,3-d]pyrimidin-4-yl)-1H-pyrazol-1-yl)butyl)piperazin-1-yl)(2,5-difluorophenyl)methanone], the IC50 is 50 to 100 nM in assay [1] and 20 to 50 nM in assay [2].

Take `CCC(CN1CCN(C(=O)c2cccc(F)c2F)CC1)n1cc(-c2ncnc3[nH]ccc23)cn1` (stereo not shown) [Example 120, (4-(2-(4-(7H-pyrrolo[2,3-d]pyrimidin-4-yl)-1H-pyrazol-1-yl)butyl)piperazin-1-yl)(2,3-difluorophenyl)methanone]: the IC50 lay within 50 to 100 nM in assay [1] and 20 to 50 nM in assay [2].

Consider `CCC(CN1CCN(C(=O)c2cc(F)cc(F)c2)CC1)n1cc(-c2ncnc3[nH]ccc23)cn1` (stereo not shown) [Example 121, (4-(2-(4-(7H-pyrrolo[2,3-d]pyrimidin-4-yl)-1H-pyrazol-1-yl)butyl)piperazin-1-yl)(3,5-difluorophenyl)methanone], for which the IC50 in assay [1] is greater than 100 nM; in assay [2], 20 to 50 nM.

Turning to `CCC(CN1CCN(C(=O)c2ccc(O)cc2Cl)CC1)n1cc(-c2ncnc3[nH]ccc23)cn1` (stereo not shown) [Example 122, (4-(2-(4-(7H-pyrrolo[2,3-d]pyrimidin-4-yl)-1H-pyrazol-1-yl)butyl)piperazin-1-yl)(2-chloro-4-hydroxyphenyl)methanone], the IC50 was 50 to 100 nM in assay [1] and less than 20 nM in assay [2].

As for `CCC(CN1CCN(C(=O)c2ccc(O)cc2F)CC1)n1cc(-c2ncnc3[nH]ccc23)cn1` (stereo not shown) [Example 123, (4-(2-(4-(7H-pyrrolo[2,3-d]pyrimidin-4-yl)-1H-pyrazol-1-yl)butyl)piperazin-1-yl)(2-fluoro-4-hydroxyphenyl)methanone], the IC50 in assay [1] and in assay [2] was less than 20 nM in each case.
